One block for each compound: values may come before it.
Columns and labels:
[1] = test system: PAK1/2/3; assay: PAK1/2/3 inhibition in unstimulated human Treg cells; assay type: cell-based; settings: 1 μM
Method: Purified lymphocytes from either humans or mice were washed with FACS buffer (5% BSA (Sigma-Aldrich) and 1×PBS), and then prepared for surface or intracellular staining, as described (Osborne and Wetzel, 2012). For surface staining, 1 μg or the manufacturer-recommended amounts of fluorescently conjugated antibody specific to the surface marker to be visualized was added to 1×10^6 cells resuspended in 100 μl of FACS buffer for 30 min at 4° C., then washed 2× with FACS buffer prior to being either analyzed or further processed. For intracellular cytokine staining (ICS), the FOXP3 Cytoperm/Cytofix staining kit (BD Pharmingen, San Diego, CA) was used after cells were stimulated for 24 h on 1 μg/ml anti-CD3-coated plates with soluble 1 μg/ml anti-CD28 antibody or anti-CD3/CD28 conjugated Dynabeads™ (Gibco, Thermo Fisher). For measuring proliferation, cells were stained with 5-μM CFSE (Molecular Probes, Eugene, OR) prior to cell culture and analyzed using flow cytometry. Flow-based measurement of caspase-1 activation was done using the FAM-FLICA® Caspase-1 Assay kit #98 following the manufacturer's instructions (ImmunoChemistry Tech, Bloomington, MN). For flow cytometry experiments using the caspase-1 inhibitor Ac-YVAD-CMK, cells were cultured with 50 μM Ac-YVAD-CMK for 2 h prior to stimulation, 24 h (mouse), and 48 h (human), with anti-CD3/CD28 conjugated Dynabeads™ and then prepared for flow cytometry analyses. For experiments using the PAK1/2/3 inhibitor FRAX597, cells were cultured with 1 μM FRAX597 for either 24 h (flow and qRT-PCR) or 48 h (immunoblotting) and then prepared for analysis. For flow cytometry or qRT-PCR experiments using IL-6 treatment, human and mouse cells were cultured with 20 ng/ml IL-6 (Peprotech) and anti-CD3/CD28 conjugated Dynabeads™ and then prepared for analyses. […] All acquisitions were performed on a Galios® or Galios® 561 cytometer equipped with Kaluza software (Beckman-Coulter, Indianapolis, IN), and all data were analyzed with FlowJo_V10 software (Tree Star, Ashland, OR).

[2] = test system: caspase-1; assay: FAM-FLICA caspase-1 activation assay in human Treg cells; assay type: cell-based
Method: Purified primary human CD4+ T cells were used for siRNA knockdown of RUNX1, RPTOR, IL37, CREB1, CHK1, NLRP2, NLRP3, NLRP4, ASC, and NLRC4, and CD4+CD25+CD127^dim T cells for siRNA knockdown of FOXP3 and IL37. Cells were purified from healthy donor PBMCs as described above and then placed in culture in complete RPMI 1640 for at least 2 h prior to siRNA transfection via nucleofection using the Amaxa P3 Primary Cell 4D-Nucleofector X Kit L (Lonza) following the manufacturer's instructions. […] Knockdowns were confirmed 24 hours after nucleofection by qRT-PCR or 48 hours later by western blot, and the relative density of the protein bands was determined using FIJI. […]
Purified lymphocytes from either humans or mice were washed with FACS buffer (5% BSA (Sigma-Aldrich) and 1×PBS), and then prepared for surface or intracellular staining, as described (Osborne and Wetzel, 2012). For surface staining, 1 μg or the manufacturer-recommended amounts of fluorescently conjugated antibody specific to the surface marker to be visualized was added to 1×10^6 cells resuspended in 100 μl of FACS buffer for 30 min at 4° C., then washed 2× with FACS buffer prior to being either analyzed or further processed. […] For measuring proliferation, cells were stained with 5-μM CFSE (Molecular Probes, Eugene, OR) prior to cell culture and analyzed using flow cytometry. […]

[3] = target: p-SMAD3 S208 (SMAD3 phosphorylated at Ser208), human, endogenous in human Treg cells (human) (UniProt P84022); assay: flow cytometry read-out in human Treg cells with or without 50 uM Ac-YVAD-CMK (FIG. 15D), presumably flow-based PLA
Chain of UniProt P84022 (P84022 2-425 limits assumed): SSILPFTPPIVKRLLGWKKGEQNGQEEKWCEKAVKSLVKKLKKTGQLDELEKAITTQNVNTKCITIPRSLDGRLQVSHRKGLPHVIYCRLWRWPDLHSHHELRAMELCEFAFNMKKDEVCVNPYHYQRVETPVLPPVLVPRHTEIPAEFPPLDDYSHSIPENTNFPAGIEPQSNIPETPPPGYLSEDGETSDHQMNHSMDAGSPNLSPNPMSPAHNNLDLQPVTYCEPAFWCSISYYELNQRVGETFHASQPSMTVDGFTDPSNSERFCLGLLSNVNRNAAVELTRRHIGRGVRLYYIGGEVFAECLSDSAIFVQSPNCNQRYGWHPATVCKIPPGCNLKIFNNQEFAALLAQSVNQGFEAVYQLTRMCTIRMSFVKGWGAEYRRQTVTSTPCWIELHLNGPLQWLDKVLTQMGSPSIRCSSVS

Compound: CCn1c(=O)c(-c2ccc(-c3cncs3)cc2Cl)cc2cnc(Nc3ccc(N4CCN(C)CC4)cc3)nc21 [FRAX 597]
IL-37 localization ([1]; 24 hrs): shift in IL-37 localization from the nucleus to the cytoplasm | p-NLRC4 (S533), fold decrease ([1]; 24 hrs): 1.9 fold | FOXP3 gene and protein expression ([1]; 24 hrs (gene), 48 hrs (protein)): decrease | reduction in caspase-1 activation ([2]; human Treg cells, 1 μM, 24 hrs): 44%

Compound: ASC: siRNA against ASC, SEQ ID NO: 1-2 (chain 1 GCUCUUCAGUUUCACACCAUU; chain 2 UGGUGUGAAACUGAAGAGCUU; chemistry not given here)
caspase-1 activation compared to siRNA scramble control ([2]; primary human Treg cells, siRNA silencing): −20.5%

decrease of the interaction after caspase-1 inhibitor Ac-YVAD-CMK, against untreated Treg cells [3]: 36.5%
Compound: Interleukin-37 (IL-37), human, endogenous in human Treg cells (from UniProt Q9NZH6 1-218) (ligand)

— US20250361485A1, “MODIFIED CD4+ T CELLS EXPRESSING IL-37 AND METHODS OF USE THEREOF” (The Regents of the University of Colorado, A Body Corporate, priority 2022, published 2025)
